# Literature values as cited in PubChem BioAssay AID1259410 (Chemical Carcinogenesis Research Information System (CCRIS), 2018).
# Tested on: rodent tumor promotion studies, tumor incidence
# Assay: CCRIS tumor promotion studies
compound,measurement,setting,value
O=C(O)C(Cl)(Cl)Cl,outcome,"Carcinogen: N-METHYL-N-NITROSOUREA, 684-93-5, Doses [Carcinogen]: 25 MG/KG IN STERILE SALINE ONCE, Doses [Promoter]: 0, 25 MMOL/L IN DRINKING WATER FOR 44 WK BEGINNING 2 WK POST CARCINOGEN DOSE (STUDY DURATION: 46 WK), Route [Carcinogen]: INTRAPERITONEAL, Route [Promoter]: ORAL, Species: MOUSE, Strain/Sex: B6C3F1/FEMALE",liver: adenoma
same,outcome,"Carcinogen: N-METHYL-N-NITROSOUREA, 684-93-5, Doses [Carcinogen]: 25 MG/KG ONCE AT 15 D OF AGE, Doses [Promoter]: 0, 20 NMOL/L IN DRINKING WATER FOR 31 WK BEGINNING AT 7 WK OF AGE (STUDY DURATION: 31 WK), Route [Carcinogen]: INTRAPERITONEAL, Route [Promoter]: ORAL, Species: MOUSE, Strain/Sex: B6C3F1/FEMALE",liver: adenoma
same,outcome,"Carcinogen: N-METHYL-N-NITROSOUREA, 684-93-5, Doses [Carcinogen]: 25 MG/KG ONCE AT 15 D OF AGE, Doses [Promoter]: 0, 20 NMOL/L IN DRINKING WATER FOR 31 WK BEGINNING AT 7 WK OF AGE (STUDY DURATION: 52 WK), Route [Carcinogen]: INTRAPERITONEAL, Route [Promoter]: ORAL, Species: MOUSE, Strain/Sex: B6C3F1/FEMALE","liver: adenoma, carcinoma"
same,outcome,"Carcinogen: N-METHYL-N-NITROSOUREA, 684-93-5, Doses [Carcinogen]: 25 MMG/KG ONCE AT 15 D OF AGE, Doses [Promoter]: 0, 6.67, 20 NMOL/L IN DRINKING WATER FOR 52 WK BEGINNING AT 7 WK OF AGE (STUDY DURATION: 52 WK), Doses [Promoter]: 0, 6.67, 20 NMOL/L IN DRINKING WATER FOR 52 WK BEGINNING AT 7 WK OF AGE (STUDY DURATION: 52 WK), Route [Carcinogen]: INTRAPERITONEAL, Route [Promoter]: ORAL, Species: MOUSE, Strain/Sex: B6C3F1/FEMALE","liver: adenoma, carcinoma"
CCCCCCCCCC(=O)OC,outcome,"Carcinogen: 7,12-DIMETHYLBENZ(A)ANTHRACENE, Doses [Carcinogen]: TOP, Route [Carcinogen]: DERMAL, Route [Promoter]: DERMAL, Species: MOUSE, Strain/Sex: FEMALE",integumentary system (skin)
CCC(=O)O[C@H]1CC[C@H]2[C@@H]3CCC4=CC(=O)CC[C@]4(C)[C@H]3CC[C@]12C,outcome,"Carcinogen: 3,2'-DIMETHYL-4-AMINOBIPHENYL, 13394-86-0, Doses [Carcinogen]: 50 MG/KG 1/2 WK FOR 20 WK, Doses [Promoter]: CONTINUOUS ADMINISTRATION TO CASTRATED RATS FOR 40 WK, IMPLANTS REPLACED AT 6-WK INTERVALS (STUDY DURATION: 60 WK), Route [Carcinogen]: SUBCUTANEOUS, Route [Promoter]: SUBCUTANEOUS IMPLANT, Species: RAT, Strain/Sex: F344/MALE",prostate: carcinoma; seminal vesicle: carcinoma
same,outcome,"Carcinogen: 3,2'-DIMETHYL-4-AMINOBIPHENYL, 13394-86-0, Doses [Carcinogen]: 50 MG/KG 1/2 WK FOR A TOTAL OF 10 INJECTIONS, Doses [Promoter]: 0, 40 MG IN SILASTIC TUBES IMPLANTED 1 WK PRIOR TO CARCINOGEN TREATMENT AND CONTINUING FOR DURATION OF STUDY WITH REPLAC, Route [Carcinogen]: SUBCUTANEOUS, Route [Promoter]: SUBCUTANEOUS IMPLANT, Species: RAT, Strain/Sex: F344/MALE",dorsolateral prostate: carcinoma; seminal vesicle: carcinoma
same,outcome,"Carcinogen: 3,2'-DIMETHYL-4-AMINOBIPHENYL, 13394-86-0, Doses [Carcinogen]: 50 MG/KG 1/2 WK FOR A TOTAL OF 10 INJECTIONS, Doses [Promoter]: 0, 100 MG/KG 1/D FOR 3 D PRECEDING EACH CARCINOGEN DOSE (STUDY DURATION: 56 WK), Route [Carcinogen]: SUBCUTANEOUS, Route [Promoter]: SUBCUTANEOUS, Species: RAT, Strain/Sex: F344/MALE",skin/subcutis: tumor
same,outcome,"Carcinogen: 3,2'-DIMETHYL-4-AMINOBIPHENYL, 13394-86-0, Doses [Carcinogen]: 50 MG/KG 1/2 WK FOR A TOTAL OF 10 INJECTIONS, Doses [Promoter]: 0, 100 MG/KG 1/D FOR 3 D PRECEDING EACH CARCINOGEN DOSE THEN 0, 40 MG IN SILASTIC TUBES IMPLANTED POST LAST CARCINOGEN D, Doses [Promoter]: 0, 100 MG/KG 1/D FOR 3 D PRECEDING EACH CARCINOGEN DOSE THEN 0, 40 MG IN SILASTIC TUBES IMPLANTED POST LAST CARCINOGEN D, Route [Carcinogen]: SUBCUTANEOUS, Route [Promoter]: SUBCUTANEOUS, Species: RAT, Strain/Sex: F344/MALE",dorsolateral prostate: carcinoma; seminal vesicles: carcinoma
same,outcome,"Carcinogen: 3,2'-DIMETHYL-4-AMINOBIPHENYL, 13394-86-0, Doses [Carcinogen]: 50 MG/KG BW 1/2 WK FOR 10 DOSES, Doses [Promoter]: 20, 40 MG/SILASTIC TUBE IMPLANT REPLACED AT 6 WK INTERVALS (STUDY DURATION: 60 WK), Route [Carcinogen]: SUBCUTANEOUS, Route [Promoter]: SUBCUTANEOUS, Species: RAT, Strain/Sex: F344/MALE",prostate (anterior): carcinoma; seminal vesicles: carcinoma
same,outcome,"Carcinogen: 3,2'-DIMETHYL-4-AMINOBIPHENYL, 58109-32-3, Doses [Carcinogen]: 50 MG/KG BW 1/2 WK FOR 20 WK, Doses [Promoter]: 0, 40 MG BEGINNING POST CARCINOGEN TREATMENT AND RENEWED AT 6 WK INTERVALS FOR 40 WK (STUDY DURATION: 60 WK), Route [Carcinogen]: SUBCUTANEOUS, Route [Promoter]: SUBCUTANEOUS IMPLANT, Species: RAT, Strain/Sex: F344/MALE",seminal vesicles: carcinoma
same,outcome,"Carcinogen: 17 BETA-ESTRADIOL [50-28-2], Doses [Carcinogen]: 22 MG AT 3 MO OF AGE ONCE/3 MO FOR 1 YR, Doses [Promoter]: 0, 60 MG AT 3 MO OF AGE ONCE/3 MO FOR 1 YR (STUDY DURATION: 1 YR), Route [Carcinogen]: SUBCUTANEOUS IMPLANT, Route [Promoter]: SUBCUTANEOUS IMPLANT, Species: RAT, Strain/Sex: NOBLE/FEMALE (?,18)/(?/15)",mammary gland: tumor
same,outcome,"Carcinogen: 17 BETA-ESTRADIOL, 50-28-2, Doses [Carcinogen]: 22 MG AT 3 MO OF AGE ONCE EVERY 3 MO FOR 1 YR, Doses [Promoter]: 0, 120 MG AT 3 MO OF AGE, 1/3 MO FOR 1 YR (STUDY DURATION: 1 YR), Route [Carcinogen]: SUBCUTANEOUS IMPLANT, Route [Promoter]: SUBCUTANEOUS IMPLANT, Species: RAT, Strain/Sex: NOBLE/FEMALE",mammary gland: tumor
same,outcome,"Carcinogen: N-BUTYL-N-(4-HYDROXYBUTYL)NITROSAMINE [3817-11-6], Doses [Carcinogen]: 0.05% IN DRINKING WATER FOR 18 WK (STUDY DURATION: 18 WK), Doses [Promoter]: 0, 3 MG/KG BW FOR 18 WK (STUDY DURATION: 18 WK), Route [Carcinogen]: ORAL, Route [Promoter]: INTRAMUSCULAR, Species: MOUSE, Strain/Sex: C57B6/6/MALE",urinary bladder: tumor
same,outcome,"Carcinogen: N-METHYL-N-NITROSOUREA, 684-93-5, Doses [Carcinogen]: 30 MG/KG BW ONCE, Doses [Promoter]: 0, 25 MG IMPLANT CHANGED AT 2 MO INTERVALS FOR A TOTAL OF 3 TIMES (STUDY DURATION: 14 MO), Route [Carcinogen]: INTRAVENOUS, Route [Promoter]: SUBCUTANEOUS IMPLANT, Species: RAT, Strain/Sex: LOBUND-WISTAR/MALE",prostate/seminal vesicles: tumor
same,outcome,"Carcinogen: N-METHYL-N-NITROSOUREA, 684-93-5, Doses [Carcinogen]: 30 MG/KG ONCE, Doses [Promoter]: 0, 50 MG IN SILASTIC MEMBRANE IMPLANT BEGINNING 1 MO POST CARCINOGEN DOSE AND REPEATED AT INTERVALS OF 2 MO FOR A TOTAL, Route [Carcinogen]: INTRAVENOUS, Route [Promoter]: SUBCUTANEOUS IMPLANT, Species: RAT, Strain/Sex: LOBUND-WISTAR/MALE",prostate: adenocarcinoma
same,outcome,"Carcinogen: N-METHYL-N-NITROSOUREA, 684-93-5, Doses [Carcinogen]: 30 MG/KG ONCE, Doses [Promoter]: 0, 50 MG IN SILASTIC MEMBRANE IMPLANT BEGINNING 1 WK POST CARCINOGEN DOSE AND REPEATED AT INTERVALS OF 2 MO FOR A TOTAL, Route [Carcinogen]: INTRAVENOUS, Route [Promoter]: SUBCUTANEOUS IMPLANT, Species: RAT, Strain/Sex: LOBUND-WISTAR/MALE",prostate: adenocarcinoma
same,outcome,"Carcinogen: N-METHYL-N-NITROSOUREA, 684-93-5, Doses [Carcinogen]: 30 MG/KG ONCE, Doses [Promoter]: 0, 50 MG IN SILASTIC MEMBRANE IMPLANT BEGINNING 1 WK POST CARCINOGEN DOSE FOLLOWED BY SECOND IMPLANT 2 MO LATER (STUDY D, Route [Carcinogen]: INTRAVENOUS, Route [Promoter]: SUBCUTANEOUS IMPLANT, Species: RAT, Strain/Sex: LOBUND-WISTAR/MALE",prostate: adenocarcinoma
same,outcome,"Carcinogen: N-METHYL-N-NITROSOUREA, 684-93-5, Doses [Carcinogen]: 30 MG/KG ONCE, Doses [Promoter]: 0, 50 MG IN SILASTIC MEMBRANE IMPLANT BEGINNING 2 MO POST CARCINOGEN DOSE AND REPEATED AT INTERVALS OF 2 MO FOR A TOTAL, Route [Carcinogen]: INTRAVENOUS, Route [Promoter]: SUBCUTANEOUS IMPLANT, Species: RAT, Strain/Sex: LOBUND-WISTAR/MALE",prostate: adenocarcinoma
same,outcome,"Carcinogen: N-METHYLNITROSOUREA, 684-93-5, Doses [Carcinogen]: 15 MG/KG/BW 1/4 WK FOR 5 INJECTIONS EACH FOLLOWING 2 WK PRETREATMENT WITH DIETARY ETHINYL ESTRADIOL, Doses [Promoter]: 0, 40 MG IMPLANTS REPLACED AT 6 WK INTERVALS FOR 40 WK IN RATS MAINTAINED ON DIETS WITH OR WITHOUT HIGH FAT CONTENT (20%, Route [Carcinogen]: INTRAVENOUS, Route [Promoter]: SUBCUTANEOUS IMPLANT, Species: RAT, Strain/Sex: F344/MALE",seminal vesicles: carcinoma; congulating glands: carcinoma
same,outcome,"Carcinogen: N-NITROSOBIS(2-OXOPROPYL)AMINE, 60599-38-4, Doses [Carcinogen]: 20 MG/KG 1/4 WK FOR 5 INJECTIONS EACH FOLLOWING 2 WK PRETREATMENT WITH DIETARY ETHINYL ESTRADIOL, Doses [Promoter]: 0, 40 MG IMPLANTS REPLACED AT 6 WK INTERVALS FOR 40 WK IN RATS MAINTAINED ON DIETS WITH OR WITHOUT HIGH FAT CONTENT (20%, Route [Carcinogen]: SUBCUTANEOUS, Route [Promoter]: SUBCUTANEOUS IMPLANT, Species: RAT, Strain/Sex: F344/MALE",seminal vesicles: carcinoma
